Measurements published in patent US20190343908A1, “Therapeutic Combination for the Treatment of Cancer” (Nerium Biotechnology Inc., priority 2011, published 2019).

Key:
[1] = test system: HCT-116 (colorectal cancer); assay: Sulforhodamine B viability assay, HCT-116; format: cell-based, human; parameters: key: absorbance (optical density) at 570 nm, second wavelength subtracted; details: for Average SRB: HCT-116
Source text: (§1) Three different viability assays were chosen to complement each other and yielded results dependent on concentration and cell line: the Methyl Tetrazolium dye assay, the Sulforhodamine B fluorescent dye assay, and the Crystal Violet dye assay.
(§2) The Sulforhodamine B and Crystal Violet assays provide information about protein and were used to complement the Methyl-Tetrazolium dye assay. […] It is used for the quantification of cellular proteins of cultured cells. The assay using Crystal Violet, a dye that binds electrostatically to proteins and stains DNA, provides a reliable, simple assay for measuring viability of cells.
(§3) The Methyl Tetrazolium, Sulforhodamine B, and Crystal Violet assays were used to assess cell viabilities. The incubation times were 24 hours, 48 hours, and 72 hours. The Nerium oleander extract Anvirzel™ (a hot water extract of oleander obtained from Salud Integral, Honduras) was tested in concentrations ranging from 0.01 ng/mL to 10 ng/mL.
(§4) Cells were detached by trypsinization (Trypsin-0.25% EDTA, Invitrogen, 25200-072) during the logarithmic phase of culture growth and plated in 96-well plates (18.000 cells/well) (Corning, Costar 359) in a final volume of 200 μl of medium per well. […] The absorbance was measured after 24 hours, 48 hours, and 72 hours of incubation.
(§5) For the Sulforhodamine B assay, 96-well plates were fixed by 10% trichloroacetic acid (Fluka, 91228) and were incubated at 4° C. for 1 hour. Afterwards, plates were rinsed with water and cells were stained with 0.4% Sulforhodamine B (Sigma, 341738), dissolved in 1% acetic acid (Carlo Ebra, 401422) for 15 minutes at room temperature (RT). The unbound stain was washed twice with 1% acetic acid. Finally, 10 mM Tris Buffer pH 10.5 (Sigma, T6791) was added to dissolve the dye.
(§6) The optical density of each plate was measured on a μQuant spectrophotometer and the data were analyzed with Gen5 software (μQuant Biomolecular Spectrophotometer MQX200 and Gen5™ Microplate Data Collection & Analysis software, BioTek® Instruments. Inc, April 2008). Absorbance was measured at 570 nm for all assays and a second wavelength was measured in order to subtract noise. For the Methyl-Tetrazolium assay this second wavelength was 630 nm and for the Sulforhodamine B and Crystal Violet assays it was 690 nm.

[2] = test system: MCF-7 (human breast cancer); assay: Sulforhodamine B viability assay, MCF-7; format: cell-based; parameters: key: absorbance (optical density) at 570 nm, second wavelength subtracted
Source text: as §1, §2, §3, §4, §5, §6

N.N.[Cl][Pt][Cl] [cisplatin]
SRB Average ([1]; HCT-116, Run 3, 24 h, 0.1 μg/ml CDDP): 2.01
SRB Average ([1]; HCT-116, Run 3, 24 h, 1 μg/ml CDDP): 2.129
SRB Average ([1]; HCT-116, Run 3, 24 h, 10 μg/ml CDDP): 2.05
SRB Average ([1]; HCT-116, Run 3, 24 h, 100 μg/ml CDDP): 2.084
SRB Average ([1]; HCT-116, Run 3, 48 h, 0.1 μg/ml CDDP): 1.933
SRB Average ([1]; HCT-116, Run 3, 48 h, 1 μg/ml CDDP): 1.394
SRB Average ([1]; HCT-116, Run 3, 48 h, 10 μg/ml CDDP): 1.353
SRB Average ([1]; HCT-116, Run 3, 48 h, 100 μg/ml CDDP): 1.136
SRB Average ([1]; HCT-116, Run 3, 72 h, 0.1 μg/ml CDDP): 2.357
SRB Average ([1]; HCT-116, Run 3, 72 h, 1 μg/ml CDDP): 1.78
SRB Average ([1]; HCT-116, Run 3, 72 h, 10 μg/ml CDDP): 1.876
SRB Average ([1]; HCT-116, Run 3, 72 h, 100 μg/ml CDDP): 1.404
Average SRB ([1]; Run 1, 24 h, 0.1 μg/ml CDDP): 1.56
Average SRB ([1]; Run 1, 24 h, 1 μg/ml CDDP): 1.606
Average SRB ([1]; Run 1, 24 h, 10 μg/ml CDDP): 1.527
Average SRB ([1]; Run 1, 24 h, 100 μg/ml CDDP): 1.736
Average SRB ([1]; Run 1, 48 h, 0.1 μg/ml CDDP): 2.278
Average SRB ([1]; Run 1, 48 h, 1 μg/ml CDDP): 2.16
Average SRB ([1]; Run 1, 48 h, 10 μg/ml CDDP): 2.055
Average SRB ([1]; Run 1, 48 h, 100 μg/ml CDDP): 1.169
Average SRB ([1]; Run 1, 72 h, 0.1 μg/ml CDDP): 2.449
Average SRB ([1]; Run 1, 72 h, 1 μg/ml CDDP): 1.569
Average SRB ([1]; Run 1, 72 h, 10 μg/ml CDDP): 1.67
Average SRB ([1]; Run 1, 72 h, 100 μg/ml CDDP): 1.616
Average SRB ([1]; Run 2, 24 h, 0.1 μg/ml CDDP): 1.357
Average SRB ([1]; Run 2, 24 h, 1 μg/ml CDDP): 1.199
Average SRB ([1]; Run 2, 24 h, 10 μg/ml CDDP): 1.056
Average SRB ([1]; Run 2, 24 h, 100 μg/ml CDDP): 1.173
Average SRB ([1]; Run 2, 48 h, 0.1 μg/ml CDDP): 2.886
Average SRB ([1]; Run 2, 48 h, 1 μg/ml CDDP): 2.878
Average SRB ([1]; Run 2, 48 h, 10 μg/ml CDDP): 2.746
Average SRB ([1]; Run 2, 48 h, 100 μg/ml CDDP): 2.664
Average SRB ([1]; Run 2, 72 h, 0.1 μg/ml CDDP): 2.909
Average SRB ([1]; Run 2, 72 h, 1 μg/ml CDDP): 2.703
Average SRB ([1]; Run 2, 72 h, 10 μg/ml CDDP): 2.728
Average SRB ([1]; Run 2, 72 h, 100 μg/ml CDDP): 2.514
SRB Average ([2]; MCF-7, Run 2, 24 h, 0.1 μg/ml CDDP): 1.754
SRB Average ([2]; MCF-7, Run 2, 24 h, 1 μg/ml CDDP): 1.225
SRB Average ([2]; MCF-7, Run 2, 24 h, 10 μg/ml CDDP): 1.717
SRB Average ([2]; MCF-7, Run 2, 24 h, 100 μg/ml CDDP): 1.056
SRB Average ([2]; MCF-7, Run 2, 48 h, 0.1 μg/ml CDDP): 2.037
SRB Average ([2]; MCF-7, Run 2, 48 h, 1 μg/ml CDDP): 0.874
SRB Average ([2]; MCF-7, Run 2, 48 h, 10 μg/ml CDDP): 0.88
SRB Average ([2]; MCF-7, Run 2, 48 h, 100 μg/ml CDDP): 0.985
SRB Average ([2]; MCF-7, Run 2, 72 h, 0.1 μg/ml CDDP): 2.289
SRB Average ([2]; MCF-7, Run 2, 72 h, 1 μg/ml CDDP): 1.409
SRB Average ([2]; MCF-7, Run 2, 72 h, 10 μg/ml CDDP): 1.179
SRB Average ([2]; MCF-7, Run 2, 72 h, 100 μg/ml CDDP): 0.897
SRB Average ([2]; MCF-7, Run 3, 24 h, 0.1 μg/ml CDDP): 2.843
SRB Average ([2]; MCF-7, Run 3, 24 h, 1 μg/ml CDDP): 1.805
SRB Average ([2]; MCF-7, Run 3, 24 h, 10 μg/ml CDDP): 2.092
SRB Average ([2]; MCF-7, Run 3, 24 h, 100 μg/ml CDDP): 1.077
SRB Average ([2]; MCF-7, Run 3, 48 h, 0.1 μg/ml CDDP): 2.371
SRB Average ([2]; MCF-7, Run 3, 48 h, 1 μg/ml CDDP): 1.787
SRB Average ([2]; MCF-7, Run 3, 48 h, 10 μg/ml CDDP): 1.338
SRB Average ([2]; MCF-7, Run 3, 48 h, 100 μg/ml CDDP): 1.673
SRB Average ([2]; MCF-7, Run 3, 72 h, 0.1 μg/ml CDDP): 2.522
SRB Average ([2]; MCF-7, Run 3, 72 h, 1 μg/ml CDDP): 1.885
SRB Average ([2]; MCF-7, Run 3, 72 h, 10 μg/ml CDDP): 1.622
SRB Average ([2]; MCF-7, Run 3, 72 h, 100 μg/ml CDDP): 1.181
SRB Average ([2]; MCF-7 Run 1, 24 h, 0.1 μg/ml CDDP): 2.066
SRB Average ([2]; MCF-7 Run 1, 24 h, 1 μg/ml CDDP): 1.404
SRB Average ([2]; MCF-7 Run 1, 24 h, 10 μg/ml CDDP): 1.825
SRB Average ([2]; MCF-7 Run 1, 24 h, 100 μg/ml CDDP): 1.579
SRB Average ([2]; MCF-7 Run 1, 48 h, 0.1 μg/ml CDDP): 2.67
SRB Average ([2]; MCF-7 Run 1, 48 h, 1 μg/ml CDDP): 1.873
SRB Average ([2]; MCF-7 Run 1, 48 h, 10 μg/ml CDDP): 1.731
SRB Average ([2]; MCF-7 Run 1, 48 h, 100 μg/ml CDDP): 1.452
SRB Average ([2]; MCF-7 Run 1, 72 h, 0.1 μg/ml CDDP): 2.779
SRB Average ([2]; MCF-7 Run 1, 72 h, 1 μg/ml CDDP): 1.762
SRB Average ([2]; MCF-7 Run 1, 72 h, 10 μg/ml CDDP): 1.702
SRB Average ([2]; MCF-7 Run 1, 72 h, 100 μg/ml CDDP): 1.024
